Results reported in paper PMC12132910, “A Novel Inhibitor against the Bromodomain Protein 1 of the Malaria Pathogen Plasmodium Falciparum” (Chemmedchem, 2025).

Columns and labels:
[1] = tested on: P. falciparum 3D7; assay: Growth of synchronous ring-stage cultures under treatment, 3D7; type: cell-based, Plasmodium falciparum; details: 3D7, synchronous ring stage, 48 h of treatment
[2] = tested on: P. falciparum NF54; assay: Malaria SYBR green I based fluorescence assay, dose response, NF54; type: cell-based; details: Plasmodium falciparum, blood stage culture, 72 hours, mean (SD), 1 to 3 biological replicates
Description: (§1) The BRDi compounds had modest activity against all three strains (Table 2 ). […]
(§2) Shield1. Parasites were propagated in human red blood cells (blood group 0+) obtained from the Bavarian Red Cross service (BRK) and cultivated under standard conditions in RPMI 1640 (ThermoFisher) supplemented with 0.5% Albumax
(§3) (ThermoFisher), 20 µg/ml Gentamycin, 25 mM Hepes (pH 7.3), and 0.02% hypoxanthine in an atmosphere of 1% O2, 5% CO2, 94% N2.
(§4) Malaria SYBR green I based fluorescence assay
(§5) SYBR Green I based fluorescence assays to determine dose-response curves were performed essentially as described previously (Leidenberger et al., 2017). Briefly, parasite cultures were diluted to 1% ring stage parasitemia and cultivated at 2.5% haematocrit in 96 well plates in the presence of serial half-log dilutions of the compounds ranging from 100 µM to 10 nM or DMSO (dimethyl sulfoxide) corresponding to the highest concentration (0.1%). Chloroquine (C6628, Sigma-Aldrich) was used as control that was not expected to target PfBDP1 and was titrated from 5 µM to 1.6 nM. After 72 hours, cultures were lysed in lysis buffer (20 mM Tris-HCl, 5 mM EDTA, 0.008% saponin (Sigma-Aldrich), 0.08% Triton X (Sigma-Aldrich), 1:10,000 SYBR Green I dye (Invitrogen)) and fluorescence was measured in a Fluoroskan Ascent FL reader (excitation: 485 nm, emission: 530 nm). […]

[3] = tested on: P. falciparum NF54; assay: Growth of synchronous ring-stage cultures under treatment, NF54; type: cell-based, Plasmodium falciparum; details: 48 h of treatment
[4] = tested on: 3D7::PfBDP1HADD parasites; assay: Dose-response assay in conditional PfBDP1 knockdown parasites; type: cell-based, Plasmodium falciparum; details: 10 nM Shld1 compared to 500 nM Shld1, 72 h
Text: To validate whether the compounds indeed target the BRD of PfBDP1, we utilized a conditional KD system to modulate the expression levels of PfBDP1 in situ.^[ [15] ^] In the 3D7::PfBDP1HADD line, PfBDP1 is fused at its C‐terminus to a ligand‐regulatable FKBP destabilization domain (DD) that targets the fusion protein for proteasomal degradation but can be stabilized by the Shield1 ligand, and 3xHA epitope tags for detection ^11. […] In contrast, the EC50 of chloroquine was unchanged.
A) Western Blot analysis of 3D7::PfBDP1HADD parasites cultivated in the presence of Shield1 (Shld) in concentrations ranging from 0 to 500 nM over 72 h in duplicates. PfBDP1HADD was detected by anti‐HA antibodies. Histone 3 (H3) was probed as a loading control. […] Growth was determined relative to DMSO controls for each condition after 72 h of culture. N = 4 replicates. […] Binding of PfBDP1HA to target loci was calculated as enrichment relative to histone H3 ChIP performed in parallel. Shown are individual values and median of one representative experiment with technical duplicates. Paired t‐test, p = 0.0015. […]
resistant strain K1, MRA-159, contributed by Dennis E. Kyle. The NF54::PfBDP1HA parasite line was generated by transfection of NF54 parasites with the plasmid pSLI_PfBDP1_3xHA and selection linked integration of the construct in the presence of G418[21]. […]
as §4
SYBR Green I based fluorescence assays to determine dose-response curves were performed essentially as described previously (Leidenberger et al., 2017). […] After 72 hours, cultures were lysed in lysis buffer (20 mM Tris-HCl, 5 mM EDTA, 0.008% saponin (Sigma-Aldrich), 0.08% Triton X (Sigma-Aldrich), 1:10,000 SYBR Green I dye (Invitrogen)) and fluorescence was measured in a Fluoroskan Ascent FL reader (excitation: 485 nm, emission: 530 nm). […]

[5] = tested on: P. falciparum 3D7; assay: Malaria SYBR green I based fluorescence assay, dose response, 3D7; type: cell-based; details: Plasmodium falciparum, blood stage culture, 72 hours, mean (SD), 1 to 3 biological replicates
Description: as §1, §2, §3, §4, §5

[6] = tested on: P. falciparum blood stage parasites; assay: Morphology and stage progression of treated synchronous parasites; type: cell-based, Plasmodium falciparum
[7] = tested on: P. falciparum K1 (multidrug resistant); assay: Malaria SYBR green I based fluorescence assay, dose response, K1; type: cell-based; details: Plasmodium falciparum, K1, 72 h, read-out: EC50 K1
Description: as §1
resistant strain K1, MRA-159, contributed by Dennis E. Kyle. […]
as §2, §3, §4, §5

Structure (SMILES): Cc1cc(C(N)=O)ccc1-c1[nH]c(C)c2c1CCCCC2=O [RMM23, 3-Methyl-4-(3-methyl-4-oxo-2,4,5,6,7,8-hexahydrocyclohepta[c]pyrrol-1-yl)benzamide]
- parasite growth after treatment of ring-stage culture [1]: significantly reduced growth
- EC50 [2]: 14 µM
- parasite growth after treatment of ring-stage culture [3]: significantly reduced growth
- change of sensitivity (dose-response, EC50) under partial PfBDP1 knockdown [4]: increased sensitivity
- EC50 [5]: 18.3 µM
- parasite development (morphology) after treatment from ring stage ([6]; treatment started at ring stage, normal trophozoites by 24 h): failed to undergo DNA replication and schizogony
- parasite development after treatment from trophozoite stage ([6]; treatment started at trophozoite stage, within 24 h, relative to DMSO control): block in egress and reinvasion
- EC50 [7]: 20.9 µM
